Values joined by “and” are separate entries in the source; they are usually repeats but may differ in a detail not shown here. Equal entries are not always repeated.
Tested on: SW 982 tumor spheroid viability
Test: Anticancer human tumor SW 982 cell line growth inhibition;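 further: spheroids exposed to compound for 7 days before readout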
Settings: spheroids with HUVEC and MSC; for viability, T/C: stronger effect = lower value
Procedure, shortened: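 Complex spheroids of malignant cells with endothelial cells and mesenchymal stem cells; agents alone or combined, from near clinical Cmax (or 10 microM if unknown) down in half-log steps, 0.25% DMSO final.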

For `Cn1ncnc1[C@H]1c2n[nH]c(=O)c3cc(F)cc(c23)N[C@@H]1c1ccc(F)cc1` + CC[C@@]1(O)C(=O)OCc2c1cc1n(c2=O)Cc2cc3c(CN(C)C)c(O)ccc3nc2-1, the IC50 (curve of first compound, second compound 0.003 µM) was > 3000 nM, the IC50 (curve of first compound, second compound 0.00949 µM) was > 3000 nM and the IC50 (curve of first compound, second compound 0.03 µM) was > 3000 nM. The IC50 (curve of first compound, second compound 0.0949 µM) was 1640 nM, the IC50 (curve of first compound, second compound 0.3 µM) was < 9.49 nM and the viability, T/C (second compound 0.003 µM, first compound 0.00949 µM) was 93.5%. For the same compound, the viability, T/C (second compound 0.003 µM, first compound 0.03 µM) was 83.8%, the viability, T/C (second compound 0.003 µM, first compound 0.0949 µM) was 83.4% and the viability, T/C (second compound 0.003 µM, first compound 0.3 µM) was 82.4%. For the same compound, the viability, T/C (second compound 0.003 µM, first compound 0.949 µM) was 86.5%, the viability, T/C (second compound 0.003 µM, first compound 3 µM) was 64.9% and the viability, T/C (second compound 0.00949 µM, first compound 0.00949 µM) was 91.5%. The viability, T/C (second compound 0.00949 µM, first compound 0.03 µM) was 81.9%, the viability, T/C (second compound 0.00949 µM, first compound 0.0949 µM) was 82.5% and the viability, T/C (second compound 0.00949 µM, first compound 0.3 µM) was 84.8%. It also gave a viability, T/C (second compound 0.00949 µM, first compound 0.949 µM) of 92.1%, a viability, T/C (second compound 0.00949 µM, first compound 3 µM) of 62.9% and a viability, T/C (second compound 0.03 µM, first compound 0.00949 µM) of 70.7%. The viability, T/C (second compound 0.03 µM, first compound 0.03 µM) was 73.7%, the viability, T/C (second compound 0.03 µM, first compound 0.0949 µM) was 70.6% and the viability, T/C (second compound 0.03 µM, first compound 0.3 µM) was 73.5%. For the same compound, the viability, T/C (second compound 0.03 µM, first compound 0.949 µM) was 62%, the viability, T/C (second compound 0.03 µM, first compound 3 µM) was 57.7% and the viability, T/C (second compound 0.0949 µM, first compound 0.00949 µM) was 60.6%. It also gave a viability, T/C (second compound 0.0949 µM, first compound 0.03 µM) of 56%, a viability, T/C (second compound 0.0949 µM, first compound 0.0949 µM) of 60.9% and a viability, T/C (second compound 0.0949 µM, first compound 0.3 µM) of 59.5%. The viability, T/C (second compound 0.0949 µM, first compound 0.949 µM) was 58.2%, the viability, T/C (second compound 0.0949 µM, first compound 3 µM) was 40.9% and the viability, T/C (second compound 0.3 µM, first compound 0.00949 µM) was 43.5%. For the same compound, the viability, T/C (second compound 0.3 µM, first compound 0.03 µM) was 45.4%, the viability, T/C (second compound 0.3 µM, first compound 0.0949 µM) was 41.9% and the viability, T/C (second compound 0.3 µM, first compound 0.3 µM) was 41.9%. It also gave a viability, T/C (second compound 0.3 µM, first compound 0.949 µM) of 37.3% and a viability, T/C (second compound 0.3 µM, first compound 3 µM) of 25.1%.
`CNCc1ccc(-c2cc(-c3nc(-c4ccc(S(=O)(=O)C(C)C)cc4)cnc3N)on2)cc1` + Cn1nnc2c(C(N)=O)ncn2c1=O showed an IC50 (curve of first compound, second compound 1 µM) of 219 nM, an IC50 (curve of first compound, second compound 3.16 µM) of 228 nM and an IC50 (curve of first compound, second compound 10 µM) of 160 nM. For the same compound, the IC50 (curve of first compound, second compound 31.6 µM) was 109 nM, the IC50 (curve of first compound, second compound 100 µM) was 53.4 nM and the viability, T/C (second compound 1 µM, first compound 0.00949 µM) was 95.6%. It also gave a viability, T/C (second compound 1 µM, first compound 0.03 µM) of 89.3%, a viability, T/C (second compound 1 µM, first compound 0.0949 µM) of 75.1% and a viability, T/C (second compound 1 µM, first compound 0.3 µM) of 38%. The viability, T/C (second compound 1 µM, first compound 0.949 µM) was 28.6%, the viability, T/C (second compound 1 µM, first compound 3 µM) was 14.7% and the viability, T/C (second compound 3.16 µM, first compound 0.00949 µM) was 92.9%. The viability, T/C (second compound 3.16 µM, first compound 0.03 µM) was 87.2%, the viability, T/C (second compound 3.16 µM, first compound 0.0949 µM) was 68.8% and the viability, T/C (second compound 3.16 µM, first compound 0.3 µM) was 39.5%. It also gave a viability, T/C (second compound 3.16 µM, first compound 0.949 µM) of 29.8%, a viability, T/C (second compound 3.16 µM, first compound 3 µM) of 9.23% and a viability, T/C (second compound 10 µM, first compound 0.00949 µM) of 72.7%. The viability, T/C (second compound 10 µM, first compound 0.03 µM) was 71.9%, the viability, T/C (second compound 10 µM, first compound 0.0949 µM) was 60% and the viability, T/C (second compound 10 µM, first compound 0.3 µM) was 35.3%. It also gave a viability, T/C (second compound 10 µM, first compound 0.949 µM) of 26.7%, a viability, T/C (second compound 10 µM, first compound 3 µM) of 8.84% and a viability, T/C (second compound 31.6 µM, first compound 0.00949 µM) of 69%. It also gave a viability, T/C (second compound 31.6 µM, first compound 0.03 µM) of 67.7%, a viability, T/C (second compound 31.6 µM, first compound 0.0949 µM) of 51.6% and a viability, T/C (second compound 31.6 µM, first compound 0.3 µM) of 31.7%. For the same compound, the viability, T/C (second compound 31.6 µM, first compound 0.949 µM) was 23.1%, the viability, T/C (second compound 31.6 µM, first compound 3 µM) was 8.96% and the viability, T/C (second compound 100 µM, first compound 0.00949 µM) was 63.5%. For the same compound, the viability, T/C (second compound 100 µM, first compound 0.03 µM) was 58.8%, the viability, T/C (second compound 100 µM, first compound 0.0949 µM) was 43.5% and the viability, T/C (second compound 100 µM, first compound 0.3 µM) was 28.1%. The viability, T/C (second compound 100 µM, first compound 0.949 µM) was 22.7% and the viability, T/C (second compound 100 µM, first compound 3 µM) was 5.36%.
With `COc1cc(C)[nH]c(=O)c1CN1CCc2c(Cl)cc(C(OC)C3COC3)c(Cl)c2C1=O` (configuration not stated) the viability, T/C (compound 0.0316 µM) was 72.5% and 105% and 108%, the viability, T/C (compound 0.1 µM) was 94.6% and 111% and 95.2% and the viability, T/C (compound 0.316 µM) was 100% and 109% and 89.6%. The viability, T/C (compound 1 µM) was 108% and 107% and 93.8%, the viability, T/C (compound 3.16 µM) was 113% and 110% and 96.4% and the viability, T/C (compound 10 µM) was 94.8% and 100% and 98.8%. For the same compound, the IC50 (curve of compound) was > 10000 nM.
